A short description of assay [1]: M. tuberculosis H37Rv growth inhibitors, H37Rv strain (AID 1626). The assay is classed as functional.
A short description of assay [2]: cells. The assay is classed as functional, cell-based.
The target of assay [3] is T1, Trace amine-associated receptor 1 (Homo sapiens, UniProt Q96RJ0).
T1 sequence (Q96RJ0 whole entry): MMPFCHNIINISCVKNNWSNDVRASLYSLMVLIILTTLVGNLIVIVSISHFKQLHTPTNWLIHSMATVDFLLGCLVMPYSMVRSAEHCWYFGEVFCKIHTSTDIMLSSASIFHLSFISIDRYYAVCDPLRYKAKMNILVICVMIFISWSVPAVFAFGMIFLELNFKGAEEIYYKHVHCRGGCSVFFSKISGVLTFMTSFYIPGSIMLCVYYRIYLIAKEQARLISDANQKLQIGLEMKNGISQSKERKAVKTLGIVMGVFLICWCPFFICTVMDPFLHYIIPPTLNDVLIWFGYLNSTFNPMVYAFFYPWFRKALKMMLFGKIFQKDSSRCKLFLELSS
Nature of the assay: Fluorescence-based cell-based high throughput dose response assay to identify agonists of the human trace amine associated receptor 1 (TAAR1). It is filed as functional.

Assay [4] has as its target T1, Trace amine-associated receptor 1. Kind of assay: Counterscreen for agonists of the human trace amine associated receptor 1 (hTAAR1): Fluorescence-based cell-based high throughput dose response assay to identify hTAAR1 agonist that also desensitize TAAR1 receptor response. It is filed as functional.
Assay [5] in a line: cells. It is filed as functional, cell-based. The source holds these as a separate data set.
Assay [6] can be described thus: Luminescence Cell-Based Dose Confirmation HTS to Identify Activators of 5'UTR Stem-Loop Driven Alpha-Synuclein mRNA Translation in H4 Neuroglioblastoma Cells. [Related pubchem assays: 1829 (Project Summary), 1814 (Primary HTS)]. The assay is classed as functional.
Assay [7] can be described thus: Luminescence Cell-Based Dose Response HTS to Identify Activators of Luciferase Translation or Activity in H4 […] Cells. [Related pubchem assays: 1829 (Project Summary), 1814 (Primary HTS)]. The assay is classed as functional.
A further assay has as its system H4. Kind of assay: Luminescence Cell-Based Dose Response HTS to Identify Activators of 5'UTR Stem-Loop Driven Prion Protein mRNA Translation in H4 Neuroglioblastoma Cells. [Related pubchem assays: 1829 (Project Summary), 1814 (Primary HTS)]. It is filed as functional. The note with it: Homo sapiens.
Assay [8] deals with NAD-dependent protein deacylase sirtuin-5, mitochondrial (Homo sapiens, UniProt Q9NXA8). Nature of the assay: SIRT5 desuccinylase inhibitors, dose response, biochemical, fluorescence imaging, cherry-pick, set 5 (AID 720591).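 Note: desuccinylation of succinyl peptide AMC substrate read as fluorescence after trypsin release; potency of inhibitors that lower fluorescence and may act on trypsin instead.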
Sequence of NAD-dependent protein deacylase sirtuin-5, mitochondrial (Q9NXA8 whole entry): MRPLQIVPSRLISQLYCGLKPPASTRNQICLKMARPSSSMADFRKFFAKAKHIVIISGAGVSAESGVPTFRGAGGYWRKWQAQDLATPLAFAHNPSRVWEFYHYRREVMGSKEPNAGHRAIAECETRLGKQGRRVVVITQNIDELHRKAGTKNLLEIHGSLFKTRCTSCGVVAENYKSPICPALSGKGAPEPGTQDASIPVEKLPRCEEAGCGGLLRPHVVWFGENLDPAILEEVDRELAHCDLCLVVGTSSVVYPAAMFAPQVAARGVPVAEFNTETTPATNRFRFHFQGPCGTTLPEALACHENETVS
Another assay concerns the target T2, Mucolipin-3 (Homo sapiens, UniProt Q8TDD5).
T2 sequence (Q8TDD5 whole entry): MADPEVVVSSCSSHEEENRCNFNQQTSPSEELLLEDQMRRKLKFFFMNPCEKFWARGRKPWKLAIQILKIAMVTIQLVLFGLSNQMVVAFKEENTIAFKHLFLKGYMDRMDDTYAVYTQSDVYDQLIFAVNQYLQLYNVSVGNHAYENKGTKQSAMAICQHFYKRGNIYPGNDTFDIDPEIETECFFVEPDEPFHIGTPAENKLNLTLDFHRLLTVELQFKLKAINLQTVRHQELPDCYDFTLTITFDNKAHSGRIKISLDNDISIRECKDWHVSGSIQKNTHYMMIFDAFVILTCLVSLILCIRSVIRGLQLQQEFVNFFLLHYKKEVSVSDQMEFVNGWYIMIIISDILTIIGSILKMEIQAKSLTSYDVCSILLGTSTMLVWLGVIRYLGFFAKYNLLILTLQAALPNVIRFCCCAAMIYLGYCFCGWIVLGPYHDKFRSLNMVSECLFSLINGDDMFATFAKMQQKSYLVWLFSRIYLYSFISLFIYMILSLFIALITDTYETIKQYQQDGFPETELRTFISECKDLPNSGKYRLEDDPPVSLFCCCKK
Kind of assay: Dose response cell-based high-throughput screening assay for agonists of the transient receptor potential channel ML3 (TRPML3). [Related pubchem assays: 1526, 1424, 1448 ]. It is filed as functional.

For a further assay, the target named is Ion channel NompC (Danio rerio, UniProt Q7T1G6). Nature of the assay: Fluorescence counterscreen assay for TRPML3 agonists: dose response cell-based high-throughput screening assay to identify agonists of the transient receptor potential channel N1 (TRPN1). [Related pubchem assays: 1526, 1424, 1448 ]. It is filed as functional.
Sequence of Ion channel NompC (Q7T1G6 whole entry): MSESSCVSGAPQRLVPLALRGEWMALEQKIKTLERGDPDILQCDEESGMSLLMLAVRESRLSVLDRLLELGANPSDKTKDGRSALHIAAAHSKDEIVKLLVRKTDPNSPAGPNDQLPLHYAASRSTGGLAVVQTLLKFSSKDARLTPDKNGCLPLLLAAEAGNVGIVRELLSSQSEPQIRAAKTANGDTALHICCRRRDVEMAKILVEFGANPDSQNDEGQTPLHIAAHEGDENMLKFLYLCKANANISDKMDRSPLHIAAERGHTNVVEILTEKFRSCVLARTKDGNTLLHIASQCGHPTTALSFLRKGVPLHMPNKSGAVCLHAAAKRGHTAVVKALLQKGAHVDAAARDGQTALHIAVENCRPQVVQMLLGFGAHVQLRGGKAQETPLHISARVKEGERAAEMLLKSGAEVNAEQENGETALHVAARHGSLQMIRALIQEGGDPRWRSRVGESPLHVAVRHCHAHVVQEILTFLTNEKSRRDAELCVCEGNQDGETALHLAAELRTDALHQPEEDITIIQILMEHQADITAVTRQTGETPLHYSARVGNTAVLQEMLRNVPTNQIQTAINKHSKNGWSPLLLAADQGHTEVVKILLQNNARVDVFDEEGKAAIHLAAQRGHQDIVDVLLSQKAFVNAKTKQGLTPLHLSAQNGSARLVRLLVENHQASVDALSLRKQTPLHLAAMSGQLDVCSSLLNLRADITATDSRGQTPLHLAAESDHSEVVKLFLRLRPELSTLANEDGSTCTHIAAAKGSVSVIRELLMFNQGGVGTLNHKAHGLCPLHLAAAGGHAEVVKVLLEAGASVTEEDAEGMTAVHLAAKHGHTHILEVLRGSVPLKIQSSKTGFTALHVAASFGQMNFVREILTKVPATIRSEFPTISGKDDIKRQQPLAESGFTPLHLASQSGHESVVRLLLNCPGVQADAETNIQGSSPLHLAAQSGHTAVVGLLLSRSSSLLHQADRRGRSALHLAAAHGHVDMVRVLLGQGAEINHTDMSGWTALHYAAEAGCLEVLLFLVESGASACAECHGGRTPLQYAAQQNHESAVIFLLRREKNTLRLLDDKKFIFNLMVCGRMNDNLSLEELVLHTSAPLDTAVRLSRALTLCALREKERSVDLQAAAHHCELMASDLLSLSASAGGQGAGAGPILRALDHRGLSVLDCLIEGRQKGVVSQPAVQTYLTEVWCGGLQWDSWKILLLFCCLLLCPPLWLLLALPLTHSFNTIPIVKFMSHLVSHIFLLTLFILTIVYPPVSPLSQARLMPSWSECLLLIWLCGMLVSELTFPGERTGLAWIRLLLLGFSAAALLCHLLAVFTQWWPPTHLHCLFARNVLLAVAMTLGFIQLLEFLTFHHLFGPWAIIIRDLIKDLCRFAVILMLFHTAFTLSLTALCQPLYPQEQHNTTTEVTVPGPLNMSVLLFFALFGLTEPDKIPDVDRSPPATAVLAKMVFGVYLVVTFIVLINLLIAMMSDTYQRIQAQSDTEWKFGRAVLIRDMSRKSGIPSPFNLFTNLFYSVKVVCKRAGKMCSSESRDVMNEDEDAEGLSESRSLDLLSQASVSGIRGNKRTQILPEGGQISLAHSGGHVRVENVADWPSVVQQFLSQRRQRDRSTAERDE
The nature of assay [9]: THP-1 cell cytotoxicity, dose response, cytotoxicity control for Vif-APOBEC3G degradation inhibitor project, THP-1 cells (AID 1117359). The assay is classed as functional. The conditions noted are these: Human immunodeficiency virus 1, THP-1.
The target in assay [10] is T3, Calpain-2 catalytic subunit (Sus scrofa, UniProt P43367).
T3 sequence (P43367 whole entry): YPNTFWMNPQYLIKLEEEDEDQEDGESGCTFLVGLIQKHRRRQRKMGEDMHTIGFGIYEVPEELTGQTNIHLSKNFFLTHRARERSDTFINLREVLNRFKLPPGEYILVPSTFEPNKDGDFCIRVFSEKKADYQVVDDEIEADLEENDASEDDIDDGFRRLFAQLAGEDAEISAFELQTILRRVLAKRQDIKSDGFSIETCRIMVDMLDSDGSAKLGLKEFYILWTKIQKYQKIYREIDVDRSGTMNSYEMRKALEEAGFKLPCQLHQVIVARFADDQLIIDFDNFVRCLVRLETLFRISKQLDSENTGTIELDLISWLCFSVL
Kind of assay: pig calpain II inhibitor potency, dose response, biochemical, fluorogenic peptide substrate (AID 1420). It is filed as functional.

The target in assay [11] is T4, Mannose-6-phosphate isomerase (Homo sapiens, UniProt P34949).
T4 sequence (P34949 whole entry): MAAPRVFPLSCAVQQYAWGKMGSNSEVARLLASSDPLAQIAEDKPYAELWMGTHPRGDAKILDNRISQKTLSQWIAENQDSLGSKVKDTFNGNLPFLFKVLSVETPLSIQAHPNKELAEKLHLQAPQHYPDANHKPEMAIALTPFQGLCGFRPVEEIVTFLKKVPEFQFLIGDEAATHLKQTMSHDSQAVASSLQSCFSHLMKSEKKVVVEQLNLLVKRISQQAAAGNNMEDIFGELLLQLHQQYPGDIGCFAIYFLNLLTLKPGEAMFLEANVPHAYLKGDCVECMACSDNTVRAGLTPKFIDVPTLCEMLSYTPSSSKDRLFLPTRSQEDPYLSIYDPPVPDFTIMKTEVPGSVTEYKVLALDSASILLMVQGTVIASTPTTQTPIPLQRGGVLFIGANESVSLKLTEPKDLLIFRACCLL
Nature of the assay: human PMI inhibitors, high substrate, primary screen, biochemical, fluorescence intensity, high mannose 6-phosphate (AID 1220).

In assay [12] the target is FAD-linked sulfhydryl oxidase ALR (Homo sapiens, UniProt P55789). Nature of the assay: inhibitors of human ALR sulfhydryl oxidase, dose response, biochemical, H2O2 detection, luminescence, cherry-pick (AID 493248).
Sequence of FAD-linked sulfhydryl oxidase ALR (P55789 whole entry): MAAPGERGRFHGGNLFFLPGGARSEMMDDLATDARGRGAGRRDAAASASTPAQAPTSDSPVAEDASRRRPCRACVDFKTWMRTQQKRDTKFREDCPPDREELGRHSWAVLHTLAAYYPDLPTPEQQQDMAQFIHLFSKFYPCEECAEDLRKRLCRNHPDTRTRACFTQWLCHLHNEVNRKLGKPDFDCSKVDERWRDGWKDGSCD
Another assay concerns the target T5, Leucine aminopeptidase (Plasmodium falciparum 3D7, UniProt Q8IL11).
T5 sequence (Q8IL11 whole entry): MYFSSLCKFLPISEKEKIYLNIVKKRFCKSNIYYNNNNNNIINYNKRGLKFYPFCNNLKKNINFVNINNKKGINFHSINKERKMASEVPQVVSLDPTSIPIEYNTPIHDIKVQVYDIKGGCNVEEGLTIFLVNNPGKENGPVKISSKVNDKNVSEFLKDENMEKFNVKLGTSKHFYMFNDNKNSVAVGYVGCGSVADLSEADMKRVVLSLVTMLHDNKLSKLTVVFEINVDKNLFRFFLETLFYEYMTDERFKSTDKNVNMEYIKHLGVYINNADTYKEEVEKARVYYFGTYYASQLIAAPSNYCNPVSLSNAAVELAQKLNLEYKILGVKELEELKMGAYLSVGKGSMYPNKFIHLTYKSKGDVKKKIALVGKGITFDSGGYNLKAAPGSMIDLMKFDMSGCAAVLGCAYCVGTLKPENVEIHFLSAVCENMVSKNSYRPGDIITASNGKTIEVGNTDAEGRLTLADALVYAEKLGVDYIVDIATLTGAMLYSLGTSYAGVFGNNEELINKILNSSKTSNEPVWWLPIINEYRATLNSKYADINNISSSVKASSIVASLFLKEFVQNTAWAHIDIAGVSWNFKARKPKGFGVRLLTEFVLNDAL
Kind of assay: P. falciparum M17LAP inhibitors, primary screen, biochemical, fluorogenic H-Leu-NHMec substrate, 1536-well (AID 1619). The assay is classed as functional.

For assay [13], the target named is T6, DNA repair protein RAD52 homolog (Homo sapiens, UniProt P43351).
T6 sequence (P43351 whole entry): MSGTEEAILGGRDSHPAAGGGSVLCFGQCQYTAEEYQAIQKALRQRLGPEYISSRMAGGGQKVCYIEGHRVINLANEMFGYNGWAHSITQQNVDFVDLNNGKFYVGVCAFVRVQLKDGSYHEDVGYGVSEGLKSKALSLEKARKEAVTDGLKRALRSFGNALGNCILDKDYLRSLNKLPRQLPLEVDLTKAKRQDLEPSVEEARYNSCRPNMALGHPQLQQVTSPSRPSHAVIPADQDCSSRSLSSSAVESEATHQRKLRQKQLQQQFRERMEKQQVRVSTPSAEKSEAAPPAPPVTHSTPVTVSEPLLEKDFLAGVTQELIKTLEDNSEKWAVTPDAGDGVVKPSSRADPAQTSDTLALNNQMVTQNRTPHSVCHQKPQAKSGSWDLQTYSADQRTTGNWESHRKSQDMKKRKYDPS
It is filed as functional, biochemical.

Assay [14] in a line: HEp-2 cell cytotoxicity, dose response, cytotoxicity control for RSV inhibitor project, HTS (AID 2410). The assay is classed as functional. The note with it: human respiratory syncytial virus.
Assay [15] is described as follows: cells.

Active and inactive are the calls of the source.

Take `Nc1nnc(SCc2ccc(F)cc2)s1`: in assay [1], the half-inhibitory concentration (IC50) was > 100 µM (active).

Turning to `O/N=C/c1ccc(-c2cc(Cl)ccc2Cl)o1`, the IC50 in assay [1] is > 100 µM (active).

As to `COc1ccccc1CCNC(=O)C(=O)NCC1OCCN1S(=O)(=O)c1ccc(C)cc1` (stereo not given), the IC50 was > 29.9 µM (inactive) in the assay “cells [2]” and 7.91 µM (active) in [4]. Besides, the EC50 was 2.51 µM (active) in assay [3] and > 29.9 µM (inactive) in the assay “cells [5]”.

As for `COc1ccc(OC(=O)NCCc2ccccc2)cc1`, the EC50 in [6] is 29 µM (active); in [7], 49 µM (active); in the assay with H4, 16.1 µM (active); in assay [3] it was 0.535 µM (active); in the assay “cells [5]”, > 29.9 µM (inactive). Also, the IC50 (in “cells [2]”; in [4]) was > 29.9 µM (inactive) throughout.

Consider `Oc1nc(Cc2ccc(F)cc2)nc2scc(-c3ccc(F)cc3)c12`, for which, in [8], the AC50 was 18 µM (active).

Take `Cc1cc(C)c(S(=O)(=O)Nc2ccccc2-c2ccccc2)c(C)c1`: the EC50 is 5.34 µM (active) on Mucolipin-3 and > 29.9 µM (not active) on Ion channel NompC.

In the case of `Cn1cccc1/C=C1/C(=O)NC(=O)N(Cc2ccccc2)C1=O`, in [9], the CC50 was > 40 µM (active).

On to `CCOc1cc(CNc2ccc(O)cc2)cc(Br)c1OCc1ccccc1F`, for which the IC50 in assay [10] was 9.81 µM (not active). Also, the CC50 in assay [9] is 27.8 µM (active).

On to `Cc1ccc(S(=O)(=O)NC2CCCCC2)c2nsnc12`, for which the EC50 was 8.34 µM (active) at Mucolipin-3 and > 29.9 µM (not active) on Ion channel NompC.

With `COC(=O)[C@H](Cc1c[nH]c2ccccc12)NC(=O)NCc1ccc(OC)c(OC)c1`, the AC50 in assay [8] was > 30 µM (inactive).

With `CC1=CC(C)(C)N(C(=O)CN2C(=O)c3ccccc3C2=O)c2ccccc21`, the 50% effective concentration (EC50) on Mucolipin-3 was 1.45 µM (active); on Ion channel NompC it was > 29.9 µM (not active).

As to `O=C(/C=C/C(=O)N1CCc2ccccc2C1)N1CCc2ccccc2C1`, the IC50 in the assay “cells [2]” was > 29.9 µM (inactive); in assay [4] it was 4.67 µM (active). Also, the EC50 was 1.14 µM (active) in assay [3] and > 29.9 µM (inactive) in “cells [5]”.

`O=C(COC(=O)c1ccccc1Br)Nc1ccccc1F`: in assay [1], the half-maximal inhibitory concentration (IC50) was > 100 µM (active).

As for `Cc1c(C(=O)NC(C)C)oc2c1-c1n[nH]cc1CC2`, the IC50 in assay [11] is listed as > 50 µM (not active).

Regarding `Cn1c(=O)c2[nH]c(Nc3ccccc3)nc2n(C)c1=O`, the AC50 in assay [12] was 0.398 µM (active). In addition, in assay [3], the EC50 is 5.67 µM (active). Further, the 50% inhibitory concentration (IC50) in [4] is 9.39 µM (active).

On to `CN(C)C(CNC(=O)CCNC(=O)c1ccc(Cl)cc1)c1ccco1` (stereo not given), for which, in assay [8], the AC50 is > 30 µM (inactive).

With `CC1CCN(CC(=O)Nc2ccc(N3CCCCCC3)cc2)CC1`, on Leucine aminopeptidase, the IC50 was 13 µM (active). In addition, the figures for the AC50 in [12] and in assay [13] were 0.448 µM (active) and 18 µM (active), respectively.

`C/C(N)=C(/C#N)C(=O)COC(=O)c1ccccc1Cc1ccccc1`: the 50% cytotoxic concentration (CC50) in [14] was 32.2 µM (active). In “cells [15]”, the concentration for half-maximal inhibition (IC50) was 45 µM (active).

Consider `COC(=O)c1ccc2[nH]ccc2c1`, for which the concentration for half-maximal inhibition (IC50) in “cells [15]” was 42.7 µM (active).

Source of the values: ChEMBL document CHEMBL1201862, “PubChem BioAssay data set” (2004).
